From patent publication US20230312582A1, “Salts Of Nitrogen-Containing Heterocyclic Compound, And Solid Forms Of Salts, Pharmaceutical Composition And Use Thereof” (Wuhan Humanwell Innovative Drug Research And Development …, priority 2020, published 2023)
In brackets after ≈: the same amount, converted by molar mass. Structures can show the parent of a compound that is named as a salt. Where two headings read alike, the source gives them in different places.

Assays:
[1] = Polarizing microscope (PLM) image, particle size; format: physicochemical; settings: room temperature
Text: The polarizing microscope data are acquired by an Axio Lab. A1 upright microscope at room temperature.

Solid stability, 1 week = format: physicochemical; settings: for Purity (area %): HPLC; for Crystal form change: XRPD
Description: The crystal form A of hydrochloride, the crystal form A of fumarate, the crystal form A of benzenesulfonate and the free base crystal form A prepared repeatedly were placed at 25° C./60% RH and 40° C./75% RH for 1 week, and then the physical and chemical stability of the samples were tested by XRPD and HPLC. […] No significant purity decrease or crystal form transformation occurred in any of the other samples after being placed under 2 conditions for 1 week.

[2] = Hygroscopicity by dynamic vapor sorption (DVS); format: physicochemical; settings: for After DVS test Whether the crystal form is changed: 0% RH to 95% RH to 0% RH; for After DVS test Whether the crystal form is changed / Hygroscopicity / Vapor sorption (25° C./80% RH): 25° C.; for Hygroscopicity / Vapor sorption (25° C./80% RH): DVS; for Risk evaluation: hygroscopicity evaluation
Description: Dynamic vapor sorption (DVS) curves are acquired on a DVS Intrinsic in SMS (Surface Measurement System). The relative humidity at 25° C. is corrected with the deliquescence points of LiCl, Mg(NO3)2 and KCl.
Hygroscopicity of the crystal form A of hydrochloride, the crystal form A of fumarate, the crystal form A of benzenesulfonate and the free base crystal form A prepared repeatedly was evaluated using a dynamic vapor sorption (DVS) instrument. Starting at 0% relative humidity (0% RH), the test acquired the percentage change of mass of the sample when humidity changed (0% RH to 95% RH to 0% RH) at a constant temperature of 25° C.

[3] = Dynamic solubility in water and three biological vehicles; format: physicochemical; settings: for Crystal form change: XRPD of solid; for pH: filtrate
Description: The dynamic solubility of the crystal form A of hydrochloride, the crystal form A of fumarate, the crystal form A of benzenesulfonate and the free base crystal form A prepared repeatedly was evaluated in water and three biological vehicles. […] After centrifugation of the samples at each time point (0.45 μm PTFE filter head), the filtrate was determined for HPLC concentration and pH, and the centrifuged solid samples were tested for XRPD.

[4] = In vivo pharmacokinetic assay in rats; settings: male, SD, rat, in vivo
Description: (§1) In vivo pharmacokinetic assay in rats was performed, wherein the used rats were 6 male SD rats weighing 180-240 g and fasted overnight. […] Blood samples were centrifuged at 8000 rpm for 6 min at 4° C., and plasma was collected and stored at −20° C. The plasma at each time point was taken and added with 3-5 times of acetonitrile solution containing the internal standard for mixing, and the mixed solution was subjected to vortex mixing for 1 min, and centrifuging at 4° C. for 10 min at 13000 rpm. The supernatant was taken and added with 3 times of water for mixing. A proper amount of the mixed solution was taken for LC-MS/MS analysis. The major pharmacokinetic parameters were analyzed using WinNonlin 7.0 software and a non-compartmental model.

[5] = In vivo pharmacokinetic assay in mice; settings: male, ICR, mouse, in vivo
Description: as §1
In vivo pharmacokinetic assay in mice was performed, wherein the used mice were 18 male ICR mice weighing 20-25 g and fasted overnight. […] The rest of the procedure was performed in the same manner as in the pharmacokinetic assay in rats.

[6] = Stability assay of human liver microsome; format: in vitro ADME; settings: human liver microsomes, NADPH, 37° C.
Description: The stability of human liver microsome was detected by in vitro co-incubation of compounds with human liver microsomes. Test compounds were first prepared as 10 mM stock solutions in DMSO solvent, followed by dilution of the compounds to 0.5 mM using acetonitrile. […] The deep-well plate was taken, […] was added to each well, then 15 μL of pre-warmed 6 mM NADPH solution was added to the plate to start the reaction, and the plate was incubated at 37° C. […] The supernatant was taken after centrifugation, and added with purified water at a ratio of 1:1 for LC-MS/MS detection to obtain the ratio of peak area of compound to peak area of internal standard at each time point. […] T1/2 was calculated using Excel.

[7] = Thermodynamic solubility assay; format: physicochemical; settings: thermodynamic from solid
Description: The compounds were weighed out accurately, added to the prepared phosphate buffered saline at pH 7.4, FeSSIF solution at pH 5.8 and FaSSGF solution at pH 1.6 to prepare a solution at a concentration of 4 mg/mL, and the prepared solution was shaken at 1000 rpm for 1 h, and then incubated overnight at room temperature. The incubated solution was centrifuged at 12000 rpm for 10 min to remove undissolved particles, and the supernatant was transferred to a new centrifuge tube. After the supernatant was diluted properly, the supernatant was added with an acetonitrile solution containing an internal standard, and quantified by adopting a standard curve prepared by the same matrix.

[8] = Pharmacokinetic assay (crystal form) in mice; format: in vivo; settings: male, ICR, mouse, plasma, oral intragastric administration 10 mg/kg
Description: as §1, with “in mice” for “in rats”, “used mice” for “used rats”, “were 9” for “were 6”, “male ICR mice” for “male SD rats”, “weighing 20-25” for “weighing 180-240”, “overnight. 9 mice were taken and orally intragastrically administered with 10 mg/kg of the compound.” for “overnight.”

[9] = intravenous injection 1 mg/kg, read-out: Vz
[10] = oral intragastric administration 10 mg/kg

## C[C@H](Cc1cnn[nH]1)OCC(=O)N1Cc2cnc(NC3Cc4ccccc4C3)nc2C1 [Free base crystal form A]
[1]
  particle size: less than 50 μm
Solid stability, 1 week; 25° C./60% RH
  Purity/initial purity (%): 100.0%
  Purity (area %): 98.67 area %
  Crystal form change: No
Solid stability, 1 week; 40° C./75% RH
  Purity/initial purity (%): 100.0%
  Purity (area %): 98.60 area %
  Crystal form change: No
[2]
  After DVS test Whether the crystal form is changed: No
  Hygroscopicity: Slightly
  Vapor sorption (25° C./80% RH): 1.03%
  Risk evaluation: None
[3]; FaSSIF, 1 h
  Crystal form change: No
  pH: 6.5
[3]; FaSSIF, 4 h
  Crystal form change: No
  pH: 6.6
[3]; FaSSIF, 24 h
  Crystal form change: No
  pH: 6.6
[3]; FeSSIF, 1 h
  Crystal form change: No
  pH: 5.1
[3]; FeSSIF, 4 h
  Crystal form change: No
  pH: 5.1
[3]; FeSSIF, 24 h
  Crystal form change: No
  pH: 5.1
[3]; H2O, 1 h
  Crystal form change: No
  pH: 8.4
[3]; H2O, 4 h
  Crystal form change: No
  pH: 8.4
[3]; H2O, 24 h
  Crystal form change: No
  pH: 8.6
[3]; SGF, 1 h
  Crystal form change: No
  pH: 1.9
[3]; SGF, 4 h
  Crystal form change: No
  pH: 1.9
[3]; SGF, 24 h
  Crystal form change: No
  pH: 2.0

## C[C@H](Cc1cnn[nH]1)OCC(=O)N1Cc2cnc(NC3Cc4ccccc4C3)nc2C1 [Crystal form A of fumarate]
[1]
  particle size: less than 50 μm
Solid stability, 1 week; 25° C./60% RH
  Purity/initial purity (%): 100.1%
  Purity (area %): 99.28 area %
  Crystal form change: No
Solid stability, 1 week; 40° C./75% RH
  Purity/initial purity (%): 100.1%
  Purity (area %): 99.33 area %
  Crystal form change: No
[2]
  After DVS test Whether the crystal form is changed: No
  Hygroscopicity: Slightly
  Vapor sorption (25° C./80% RH): 0.60%
  Risk evaluation: None
[2]; at 0% RH to 80% RH
  DVS curve vapor sorption: less than 0.60%
[3]; H2O, 1 h
  Crystal form change: No
  pH: 3.6
[3]; H2O, 4 h
  Crystal form change: No
  pH: 3.7
[3]; H2O, 24 h
  Crystal form change: No
  pH: 3.6
[3]; SGF, 1 h
  Crystal form change: No
  pH: 1.9
[3]; SGF, 4 h
  Crystal form change: No
  pH: 1.9
[3]; SGF, 24 h
  Crystal form change: No
  pH: 1.9
[3]; FaSSIF, 1 h
  pH: 4.9
[3]; FaSSIF, 4 h
  pH: 4.4
[3]; FaSSIF, 24 h
  pH: 4.2
[3]; FeSSIF, 1 h
  pH: 4.8
[3]; FeSSIF, 4 h
  pH: 4.9
[3]; FeSSIF, 24 h
  pH: 4.8

## O=C(COCCc1cnn[nH]1)N1Cc2cnc(NC3Cc4ccccc4C3)nc2C1 [Control compound, reference compound]
[4]; intravenous injection 1 mg/kg
  AUC(0-t): 580 ng·h/mL
  clearance: 29.3 mL/min/kg
  half-life: 27 min
[4]; [9]
  Vd: 1.12 L/kg
[4]; [10]
  AUC(0-t): 4870 ng·h/mL
  Cmax: 2590 ng/mL
  Tmax: 25.2 min
  half-life: 78.6 min
[5]; intravenous injection 1 mg/kg
  AUC(0-t): 290 ng·h/mL
  clearance: 57.5 mL/min/kg
  half-life: 20.4 min
[5]; [9]
  Vd: 1.67 L/kg
[5]; [10]
  AUC(0-t): 2900 ng·h/mL
  Cmax: 2040 ng/mL
  Tmax: 15 min
  half-life: 49.8 min
[6]
  Remaining percentage of compound after 30 min of incubation (%): 41.2%
  half-life at 1.5 μM: 24.1 min
[7]; aqueous buffer, PBS, pH 7.4, room temperature overnight, read-out: Solubility PBS (pH 7.4)
  solubility: 6.3 mg/mL (≈ 15.5 mM)
[7]; fassgf or other biorelevant, FaSSGF, pH 1.6, room temperature overnight, read-out: Solubility FaSSGF (pH 1.6)
  solubility: 66.5 mg/mL (≈ 164 mM)
[7]; FeSSIF, pH 5.8, room temperature overnight, read-out: Solubility FeSSIF (pH 5.8)
  solubility: 18.3 mg/mL (≈ 45.1 mM)
[8]
  AUC(0-t): 2900 ng·h/mL
  Cmax: 2040 ng/mL
  Tmax: 15 min
  half-life: 49.8 min
